{
  "source": "patent US9804176B2",
  "about": "“Assays for vitamin D epimers” (Siemens Healthcare Diagnostics Inc., priority 2014, dated 2017)",
  "test_system": "biotinylated monoclonal anti-25OH vitamin D antibody",
  "assay": "25OH Vitamin D LOCI immunoassay, 3-epimer cross-reactivity, no anti-3-epimer antibody added",
  "type": "binding, sheep",
  "settings": "No anti-3-epimer VD Ab added; for Avg. Cross-reactivity: average of ten patient sera spiked with 100 ng/mL 3-epimer D3",
  "protocol": "The 25OH Vitamin D (25(OH)D) immunoassay format employed was a homogeneous competitive chemiluminescent immunoassay based on LOCI® assay technology. The assay was performed on the Siemens Dimension® EXL automated integrated clinical chemistry system (Siemens Healthcare Diagnostics Inc., Deerfield, Ill.). The assay measured the total concentration of 25(OH)D2 and/or 25(OH)D3 in serum and plasma samples. The LOCI® assay reagents included a releasing reagent, two synthetic bead reagents and a biotinylated monoclonal anti-25OH vitamin D antibody reagent. The first bead reagent (designated “Sensibeads”) was coated with streptavidin and contained a photosensitive dye. The second bead reagent (designated “Chemibeads”) was coated with a 25(OH)D3 analog and contained chemiluminescent dye. Sample was incubated with the releasing reagent to release 25(OH)D molecules including 3-epimeric compounds from vitamin D binding proteins. The reaction mixture was then incubated with biotinylated antibody to form a 25(OH)D-biotinylated antibody complex. […] Chemibeads were added to bind excess free biotinylated antibody. Sensibeads were then added to bind to the biotin portion of the biotinylated antibody. Aggregates of Chemibead-analog/antibody-biotin/streptavidin-Sensibeads were formed as a result. […] The resulting chemiluminescent signal was measured at 612 nm and is inversely proportional to the concentration of total 25(OH)D in the sample.\nBiotinvlation of anti-25(OH)D antibody—NHS-PEO4-biotin (Pierce Chemical Company, Rockford Ill.) was coupled with the anti-25(OH)D antibody (a sheep monoclonal antibody from Bioventix, Farnham, Surrey, UK). […] The concentration was measured on UV A280. […]\nThe effect of adding anti-3-epimer-VD antibody 8F10.1 (anti-3-epimer VD Ab) on the 3-epimer cross-reactivity for the assay is shown in Table 1. […] The 3-epimer cross-reactivity was calculated by the difference between 25(OH)D2 or 25(OH)D3 values with and without the spiked 3-epimer compound divided by the amount of added 3-epimer compound.",
  "note": "Where “and” joins values, the source holds several entries; their conditions need not be identical. Identical values can stand only once.",
  "data": [
    {"molecule": "C=C1CC[C@@H](O)C/C1=C/C=C1\\CCC[C@]2(C)[C@@H]([C@H](C)CCCC(C)(C)O)CC[C@@H]12", "note": "[3-epimer D3, 3-epi-25-hydroxyvitamin D3]", "values": [
      {"measurement": "Avg. Cross-reactivity", "value": 13.7, "unit": "%"},
      {"measurement": "Avg. Cross-reactivity", "setting": "listed as 3-epimer vitamin D3 compound", "value": 13.7, "unit": "%"},
      {"measurement": "Cross-Reactivity", "setting": "individual patient serum spiked with 100 ng/mL 3-epimer D3", "value": "17.9% (2×) and 11.9% and 12.6% and 16.1% and 10.2% and 9.1% and 10.5% and 15.3% and 15.5%"}
    ]}
  ]
}
